These compounds were tested against GST-Xa-hAAK1 (Homo sapiens (Human), UniProt Q2M2I8) (assay: AAK1 Kinase Assay). Conditions: ATP 22 μM; 3 hours at room temperature.
Assay type: biochemical

Chain of GST-Xa-hAAK1 (Q2M2I8 whole entry): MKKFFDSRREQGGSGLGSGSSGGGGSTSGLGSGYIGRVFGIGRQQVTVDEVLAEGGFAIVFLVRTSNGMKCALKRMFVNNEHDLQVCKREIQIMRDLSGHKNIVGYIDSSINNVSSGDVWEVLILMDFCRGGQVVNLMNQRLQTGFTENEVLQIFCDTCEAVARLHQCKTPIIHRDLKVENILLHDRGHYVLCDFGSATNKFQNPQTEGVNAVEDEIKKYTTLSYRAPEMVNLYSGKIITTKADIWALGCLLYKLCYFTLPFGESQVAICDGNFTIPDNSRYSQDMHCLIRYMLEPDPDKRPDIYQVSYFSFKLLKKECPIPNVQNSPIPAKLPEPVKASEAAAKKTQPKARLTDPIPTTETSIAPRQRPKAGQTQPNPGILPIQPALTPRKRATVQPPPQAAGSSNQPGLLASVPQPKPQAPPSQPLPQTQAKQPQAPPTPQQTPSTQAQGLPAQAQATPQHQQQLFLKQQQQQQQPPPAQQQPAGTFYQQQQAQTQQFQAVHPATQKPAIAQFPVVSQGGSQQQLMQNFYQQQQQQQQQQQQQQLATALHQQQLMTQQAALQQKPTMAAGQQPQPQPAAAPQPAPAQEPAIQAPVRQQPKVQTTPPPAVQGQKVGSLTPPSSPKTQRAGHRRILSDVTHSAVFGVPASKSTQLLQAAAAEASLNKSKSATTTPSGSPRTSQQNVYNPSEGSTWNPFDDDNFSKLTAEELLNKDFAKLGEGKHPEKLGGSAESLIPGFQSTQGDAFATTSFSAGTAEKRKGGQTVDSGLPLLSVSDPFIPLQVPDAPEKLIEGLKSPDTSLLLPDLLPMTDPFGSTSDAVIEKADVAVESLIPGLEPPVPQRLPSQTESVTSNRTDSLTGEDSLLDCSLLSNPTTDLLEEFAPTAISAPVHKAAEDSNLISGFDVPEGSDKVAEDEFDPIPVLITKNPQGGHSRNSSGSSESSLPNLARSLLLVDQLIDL

| IC50 | SMILES |
| --- | --- |
| 406 nM | CC(C)n1nnc(-c2cc(CO)cc(Nc3ncnn4cccc34)c2)n1 [Example 83, (3-(2-isopropyl-2H-tetrazol-5-yl)-5-(pyrrolo[2,1-f][1,2,4]triazin-4-ylamino)phenyl)methanol] |
| 123 nM | Cc1ccn2ncnc(Nc3cccc(-c4noc(C(C)C)n4)c3)c12 [Example 86] |
| 16 nM | COC(=O)c1cn2ncnc(Nc3cccc(-c4nnn(C(C)C)n4)c3)c2c1CN1CCC(N)CC1 [Example 111, methyl 5-((4-aminopiperidin-1-yl)methyl)-4-((3-(2-isopropyl-2H-tetrazol-5-yl)phenyl)amino)pyrrolo[2,1-f][1,2,4]triazine-6-carboxylate] |
| 82 nM | CC(C)c1nc(-c2cc(O)cc(Nc3ncnn4cccc34)c2)no1 [Example 85, 3-(5-isopropyl-1,2,4-oxadiazol-3-yl)-5-(pyrrolo[2,1-f][1,2,4]triazin-4-ylamino)phenol] |
| 883 nM | CCOC(=O)c1ccn2ncnc(Nc3cccc(-c4noc(C(C)C)n4)c3)c12 [Example 97, ethyl 4-((3-(5-isopropyl-1,2,4-oxadiazol-3-yl)phenyl)amino)pyrrolo[2,1-f][1,2,4]triazine-5-carboxylate] |
| 413 nM | CC(C)(CO)c1nc(-c2cccc(Nc3ncnn4cccc34)c2)no1 [Example 81, 2-methyl-2-(3-(3-(pyrrolo[2,1-f][1,2,4]triazin-4-ylamino)phenyl)-1,2,4-oxadiazol-5-yl)propan-1-ol] |
| 289 nM | COCCNC(=O)c1ccn2ncnc(Nc3cccc(-c4nnn(C(C)C)n4)c3)c12 [Example 108, 4-((3-(2-isopropyl-2H-tetrazol-5-yl)phenyl)amino)-N-(2-methoxyethyl)pyrrolo[2,1-f][1,2,4]triazine-5-carboxamide] |
| 474 nM | CCOC(=O)c1ccn2ncnc(Nc3cccc(-c4nnc(C(C)C)s4)c3)c12 [Example 94, ethyl 4-((3-(5-isopropyl-1,3,4-thiadiazol-2-yl)phenyl)amino)pyrrolo[2,1-f][1,2,4]triazine-5-carboxylate] |
| 67 nM | CC(C)(CN)c1nc(-c2cccc(Nc3ncnn4cccc34)c2)no1 [Example 82, N-(3-(5-(1-amino-2-methylpropan-2-yl)-1,2,4-oxadiazol-3-yl)phenyl)pyrrolo[2,1-f][1,2,4]triazin-4-amine] |
| 10 nM | CNC1CCN(Cc2ccn3ncnc(Nc4cc(F)cc(-c5noc(C(C)C)n5)c4)c23)CC1 [Example 44, N-(3-fluoro-5-(5-isopropyl-1,2,4-oxadiazol-3-yl)phenyl)-5-((4-(methylamino)piperidin-1-yl)methyl)pyrrolo[2,1-f][1,2,4]triazin-4-amine] |
| 687 nM | CC(C)n1nnc(-c2cccc(Nc3ncnn4ccc(C(=O)N(C)C)c34)c2)n1 [Example 101, 4-((3-(2-isopropyl-2H-tetrazol-5-yl)phenyl)amino)-N,N-dimethylpyrrolo[2,1-f][1,2,4]triazine-5-carboxamide] |
| 269 nM | CC(C)c1nnc(-c2cccc(Nc3ncnn4cccc34)c2)s1 [Example 79, N-(3-(5-isopropyl-1,3,4-thiadiazol-2-yl)phenyl)pyrrolo[2,1-f][1,2,4]triazin-4-amine] |
| 220 nM | CC(C)n1nnc(-c2cccc(Nc3ncnn4cccc34)c2)n1 [Example 76, N-(3-(2-isopropyl-2H-tetrazol-5-yl)phenyl)pyrrolo[2,1-f][1,2,4]triazin-4-amine] |
| 21 nM | CC(C)n1nnc(-c2cc(Nc3ncnn4ccc(CN5CCC(N)CC5)c34)ccc2F)n1 [Example 49, 5-((4-aminopiperidin-1-yl)methyl)-N-(4-fluoro-3-(2-isopropyl-2H-tetrazol-5-yl)phenyl)pyrrolo[2,1-f][1,2,4]triazin-4-amine] |

More lines, now with the values behind:

| SMILES | IC50 |
| --- | --- |
| Cc1nnc(-c2cccc(Nc3ncnn4ccc(CN5CC(N)C5)c34)c2)s1 [Example 19, 5-((3-aminoazetidin-1-yl)methyl)-N-(3-(5-methyl-1,3,4-thiadiazol-2-yl)phenyl)pyrrolo[2,1-f][1,2,4]triazin-4-amine] | 2120 nM |
| CC(C)n1nnc(-c2cc(O)cc(Nc3ncnn4ccc(CN5CCC(N)CC5)c34)c2)n1 [Example 36, 3-((5-((4-aminopiperidin-1-yl)methyl)pyrrolo[2,1-f][1,2,4]triazin-4-yl)amino)-5-(2-isopropyl-2H-tetrazol-5-yl)phenol] | 3.3 nM |

Same assay, conditions: ATP 22 μM; 3 hours at room temperature; listed as IC50 ranges

| IC50 | SMILES |
| --- | --- |
| 100 to 1000 nM | CC(C)c1nc(-c2ccc(F)c(Nc3ncnn4ccc(CN5CCC(N)CC5)c34)c2)no1 [Example 52, 5-((4-aminopiperidin-1-yl)methyl)-N-(2-fluoro-5-(5-isopropyl-1,2,4-oxadiazol-3-yl)phenyl)pyrrolo[2,1-f][1,2,4]triazin-4-amine] |
| 100 to 1000 nM | CC(C)n1nnc(-c2cccc(Nc3ncnn4ccc(CN5CCN(C)CC5)c34)c2)n1 [Example 54, N-(3-(2-isopropyl-2H-tetrazol-5-yl)phenyl)-5-((4-methylpiperazin-1-yl)methyl)pyrrolo[2,1-f][1,2,4]triazin-4-amine] |
| 100 to 1000 nM | CC(C)c1nnc(-c2cccc(Nc3ncnn4ccc(CNCCCN)c34)c2)s1 [Example 69, N1-((4-((3-(5-isopropyl-1,3,4-thiadiazol-2-yl)phenyl)amino)pyrrolo[2,1-f][1,2,4]triazin-5-yl)methyl)propane-1,3-diamine] |
| 10 to 100 nM | CC(=O)NC1CCN(Cc2ccn3ncnc(Nc4cccc(-c5nnc(C(C)C)s5)c4)c23)CC1 [Example 53, N-(1-((4-((3-(5-isopropyl-1,3,4-thiadiazol-2-yl)phenyl)amino)pyrrolo[2,1-f][1,2,4]triazin-5-yl)methyl)piperidin-4-yl)acetamide] |
| 1000 to 5000 nM | NC1CCN(Cc2cc(Br)n3ncnc(Nc4cccc(-c5cnco5)c4)c23)CC1 [Example 68, 5-((4-aminopiperidin-1-yl)methyl)-7-bromo-N-(3-(oxazol-5-yl)phenyl)pyrrolo[2,1-f][1,2,4]triazin-4-amine] |

Continued, compound first:

| SMILES | IC50 |
| --- | --- |
| CNC1CCN(Cc2ccn3ncnc(Nc4cccc(-c5nnn(C(C)C)n5)c4)c23)CC1 [Example 42, N-(3-(2-isopropyl-2H-tetrazol-5-yl)phenyl)-5-((4-(methylamino)piperidin-1-yl)methyl)pyrrolo[2,1-f][1,2,4]triazin-4-amine] | 10 to 100 nM |
| CC(C)c1nc(-c2cc(O)cc(Nc3ncnn4ccc(CN5CCC(N)CC5)c34)c2)no1 [Example 37, 3-((5-((4-aminopiperidin-1-yl)methyl)pyrrolo[2,1-f][1,2,4]triazin-4-yl)amino)-5-(5-isopropyl-1,2,4-oxadiazol-3-yl)phenol] | 1 to 10 nM |
| CC(C)c1nnc(-c2cccc(Nc3ncnn4ccc(CN5CC(N)C5)c34)c2)s1 [Example 28, 5-((3-aminoazetidin-1-yl)methyl)-N-(3-(5-isopropyl-1,3,4-thiadiazol-2-yl)phenyl)pyrrolo[2,1-f][1,2,4]triazin-4-amine] | 100 to 1000 nM |
| CC(C)c1nnc(-c2cccc(Nc3ncnn4ccc(CN5CCNCC5)c34)c2)s1 [Example 35, N-(3-(5-isopropyl-1,3,4-thiadiazol-2-yl)phenyl)-5-(piperazin-1-ylmethyl)pyrrolo[2,1-f][1,2,4]triazin-4-amine] | 100 to 1000 nM |
| CNC1CCN(Cc2ccn3ncnc(Nc4cccc(-c5nnc(C6CC6)s5)c4)c23)CC1 [Example 24, N-(3-(5-cyclopropyl-1,3,4-thiadiazol-2-yl)phenyl)-5-((4-(methylamino)piperidin-1-yl)methyl)pyrrolo[2,1-f][1,2,4]triazin-4-amine] | 10 to 100 nM |
| CC(C)(CO)c1nc(-c2cccc(Nc3ncnn4ccc(CN5CCC(N)CC5)c34)c2)no1 [Example 10, 2-(3-(3-((5-((4-aminopiperidin-1-yl)methyl)pyrrolo[2,1-f][1,2,4]triazin-4-yl)amino)phenyl)-1,2,4-oxadiazol-5-yl)-2-methylpropan-1-ol] | 10 to 100 nM |
| CNC1CCN(Cc2ccn3ncnc(Nc4cccc(-c5nnc(C(C)C)s5)c4)c23)C1 (centres unmarked) [Example 30, N-(3-(5-isopropyl-1,3,4-thiadiazol-2-yl)phenyl)-5-((3-(methylamino)pyrrolidin-1-yl)methyl)pyrrolo[2,1-f][1,2,4]triazin-4-amine] | 100 to 1000 nM |
| CNC1CCN(Cc2ccn3ncnc(Nc4cccc(-c5nnc(C)s5)c4)c23)CC1 [Example 18, N-(3-(5-methyl-1,3,4-thiadiazol-2-yl)phenyl)-5-((4-(methylamino)piperidin-1-yl)methyl)pyrrolo[2,1-f][1,2,4]triazin-4-amine] | 100 to 1000 nM |
| NC1CCN(Cc2ccn3ncnc(Nc4cccc(-c5noc(CCl)n5)c4)c23)CC1 [Example 11, 5-((4-aminopiperidin-1-yl)methyl)-N-(3-(5-(chloromethyl)-1,2,4-oxadiazol-3-yl)phenyl)pyrrolo[2,1-f][1,2,4]triazin-4-amine] | 100 to 1000 nM |
| CC(C)c1nnc(-c2cccc(Nc3ncnn4ccc(CN5CCC(CN)C5)c34)c2)s1 (centres unmarked) [Example 31, 5-((3-(aminomethyl)pyrrolidin-1-yl)methyl)-N-(3-(5-isopropyl-1,3,4-thiadiazol-2-yl)phenyl)pyrrolo[2,1-f][1,2,4]triazin-4-amine] | 100 to 1000 nM |
| Cc1nc(-c2cccc(Nc3ncnn4ccc(CN5CCC(N)CC5)c34)c2)no1 [Example 13, 5-((4-aminopiperidin-1-yl)methyl)-N-(3-(5-methyl-1,2,4-oxadiazol-3-yl)phenyl)pyrrolo[2,1-f][1,2,4]triazin-4-amine] | 100 to 1000 nM |
| NC1CN(Cc2ccn3ncnc(Nc4cccc(-c5nnc(C6CC6)s5)c4)c23)C1 [Example 25, 5-((3-aminoazetidin-1-yl)methyl)-N-(3-(5-cyclopropyl-1,3,4-thiadiazol-2-yl)phenyl)pyrrolo[2,1-f][1,2,4]triazin-4-amine] | 100 to 1000 nM |
| NC1CCN(Cc2ccn3ncnc(Nc4cccc(-c5cnco5)c4)c23)CC1 [Example 1, 5-((4-aminopiperidin-1-yl)methyl)-N-(3-(oxazol-5-yl)phenyl)pyrrolo[2,1-f][1,2,4]triazin-4-amine] | 100 to 1000 nM |
| NC1CCN(Cc2ccn3ncnc(Nc4cccc(-c5nnc(C6CC6)s5)c4)c23)CC1 [Example 23, 5-((4-aminopiperidin-1-yl)methyl)-N-(3-(5-cyclopropyl-1,3,4-thiadiazol-2-yl)phenyl)pyrrolo[2,1-f][1,2,4]triazin-4-amine] | 100 to 1000 nM |
